Experiments:
[1] = test system: NS-20Y (mouse neuroblastoma cells); test: Activity on NS-20Y cells: appearance of neurites; type: cell-based
Method in brief: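 Mouse neuroblastoma NS-20Y cells were grown in polyornithine-coated dishes in DMEM with 10 % FCS, 100 units/ml penicillin G sodium and 100 micrograms/ml streptomycin sulfate, at 37° C under 5 % carbon dioxide, and exposed to compound. Cells were fixed with 4 % glutaraldehyde, stained with 0.05 % methylene blue, and the fraction bearing neurites at least twice the cell's long diameter was counted microscopically.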

[2] = test system: neuro-2a (mouse neuroblastoma cells); test: Action on neuro-2a: proportion of cells containing outgrown neurites; type: cell-based; conditions: mean ± S.D.
Method in brief: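 Mouse neuro-2a cells at 1,000 cells/well in DMEM with 10% FCS were cultured one day at 37 °C, 5% CO2, then glutaraldehyde-fixed and methylene-blue-stained. The proportion of cells bearing a neurite at least twice the cell's long diameter was counted over >200 cells; up to 6 concentrations, triplicate runs.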

Acute toxicity on mice = type: in vivo; conditions: mouse, in vivo, ip, 24 hours after administration; read-out: Estimated LD50
Protocol: The acute toxicity of the compounds of the invention was examined by the following method.
Male ddy-strain 5-week old mice, 4-6- per group, were used as experimental animals. Each of the compounds was intraperitoneally (i.p.), and the toxicity of the compound was assessed 24 hours after the administration.

SMILES | Number of cells in which neurites appeared/total number of cells ([1]; 24 hours, 0.1 mM) | Number of cells in which neurites appeared/total number of cells ([1]; 48 hours, 0.1 mM) | Number of cells having neurites with a length at least two times the diameter of each cell/total number of cells ([2]; 1 mM) [%] | LD50 at 24 h (Acute toxicity on mice) [mg/kg] | Number of cells having neurites with a length at least two times the diameter of each cell/total number of cells ([2]; 0.03 mM) [%] | Number of cells having neurites with a length at least two times the diameter of each cell/total number of cells ([2]; 0.1 mM) [%] | Number of cells having neurites with a length at least two times the diameter of each cell/total number of cells ([2]; 0.3 mM) [%] | also measured
CC(=O)N(C)c1ccnc(N2CCC(c3ccccc3)CC2)n1 [Compound 208] | 27/53 | 28/50 | 10.6 ± 1.5 | > 1000 |  |  |  | Number of cells in which neurites appeared/total number of cells ([1]; 24 hours, 0.25 mM): 17/51; Number of cells having neurites with a length at least two times the diameter of each cell/total number of cells ([2]; 0.5 mM): 7.2 ± 2.3%; Number of cells having neurites with a length at least two times the diameter of each cell/total number of cells ([2]; 2 mM): 11.1 ± 1.2%; Number of cells having neurites with a length at least two times the diameter of each cell/total number of cells ([2]; 3 mM): 8.0 ± 4.0%
CC(C)C(=O)N(C)c1ccnc(N2CCC(c3ccccc3)CC2)n1 [Compound 216] |  |  |  | > 1000 | 6.3 ± 2.4 | 26.6 ± 5.6 |  | Number of cells in which neurites appeared/total number of cells ([1]; 24 hours, 0.025 mM): 3/49; Number of cells in which neurites appeared/total number of cells ([1]; 48 hours, 0.025 mM): 24/50; Number of cells in which neurites appeared/total number of cells ([1]; 48 hours, 0.05 mM): 20/50; Number of cells having neurites with a length at least two times the diameter of each cell/total number of cells ([2]; 0.01 mM): 3.7 ± 0.4%
CN(C(=O)C1CCCCC1)c1ccnc(N2CCC(c3ccccc3)CC2)n1 [Compound 232] |  |  |  | > 1000 | 3.9 ± 1.8 | 18.7 ± 5.2 |  | Number of cells in which neurites appeared/total number of cells ([1]; 24 hours, 0.025 mM): 2/50; Number of cells in which neurites appeared/total number of cells ([1]; 48 hours, 0.01 mM): 2/49
CN(C(=O)c1ccc(Cl)cc1)c1ccnc(N2CCC(c3ccccc3)CC2)n1 [Compound 240] |  |  | 30.9 ± 5.9 | > 1000 | 19.8 ± 5.7 | 38.7 ± 4.5 | 33.2 ± 0.9 | Number of cells in which neurites appeared/total number of cells ([1]; 24 hours, 0.2 mM): 4/50; Number of cells in which neurites appeared/total number of cells ([1]; 48 hours, 0.2 mM): 3/50
CN(C(=O)c1ccc([N+](=O)[O-])cc1)c1ccnc(N2CCC(c3ccccc3)CC2)n1 [Compound 264] |  |  | 15.2 ± 3.2 | 500 to 1000 |  | 5.2 ± 3.1 | 8.7 ± 1.6 | Number of cells in which neurites appeared/total number of cells ([1]; 24 hours, 0.4 mM): 8/48; Number of cells in which neurites appeared/total number of cells ([1]; 48 hours, 0.4 mM): 4/50; Number of cells having neurites with a length at least two times the diameter of each cell/total number of cells ([2]; 3 mM): 7.2 ± 1.8%
COc1ccc(C(=O)N(C)c2ccnc(N3CCC(c4ccccc4)CC3)n2)cc1 [Compound 272] | 33/50 | 17/50 | 17.0 ± 4.3 | > 1000 | 4.8 ± 1.3 | 30.9 ± 2.8 | 15.9 ± 0.5 | Number of cells in which neurites appeared/total number of cells ([1]; 24 hours, 0.2 mM): 24/50
COc1cc(C(=O)N(C)c2ccnc(N3CCC(c4ccccc4)CC3)n2)cc(OC)c1OC [Compound 280] |  | 8/53 | 17.4 ± 2.6 | 500 to 1000 | 4.5 ± 1.2 | 17.2 ± 1.3 | 13.4 ± 3.5 | Number of cells in which neurites appeared/total number of cells ([1]; 24 hours, 0.2 mM): 3/50
CN(C(=O)c1ccc(-c2ccccc2)cc1)c1ccnc(N2CCC(c3ccccc3)CC2)n1 [Compound 288] | 2/52 | 2/50 | 5.1 ± 2.7 | 500 to 1000 | 1.4 ± 0.1 | 3.3 ± 0.9 | 3.8 ± 1.9 | 
CN(C(=O)c1ccccc1)c1ccnc(N2CCC(Cc3ccccc3)CC2)n1 [Compound 304] | 40/50 |  |  | > 1000 |  | 38.1 ± 1.6 | 15.3 ± 6.3 | Number of cells in which neurites appeared/total number of cells ([1]; 48 hours, 0.01 mM): 3/50
CC(=O)N(C)c1ccnc(N2CCCc3ccccc32)n1 [Compound 320] | 8/50 | 6/50 |  | > 1000 |  | 7.2 ± 0.2 | 8.5 ± 1.1 | 
CN(C(=O)c1ccccc1)c1ccnc(N2CCCc3ccccc32)n1 [Compound 328] | 32/50 | 12/51 |  | > 1000 | 10.2 ± 8.2 | 28.0 ± 6.8 | 10.6 ± 3.4 | Number of cells in which neurites appeared/total number of cells ([1]; 48 hours, 0.025 mM): 8/50; Number of cells having neurites with a length at least two times the diameter of each cell/total number of cells ([2]; 0.01 mM): 6.6 ± 0.5%
CN(C(=O)c1ccccc1)c1ccnc(N2CCN(c3ccccc3)CC2)n1 [Compound 360] | 18/50 | 4/50 |  | > 1000 | 6.5 ± 0.7 | 10.0 ± 0.7 |  | Number of cells in which neurites appeared/total number of cells ([1]; 24 hours, 0.02 mM): 8/50
CN(C(=O)c1ccccc1)c1ccnc(N2CCN(Cc3ccccc3)CC2)n1 [Compound 368] | 14/50 | 5/50 |  | 500 to 1000 | 3.5 ± 0.5 | 9.0 ± 1.8 |  | Number of cells in which neurites appeared/total number of cells ([1]; 48 hours, 0.05 mM): 8/51
CN(C(=O)c1ccccc1)c1ccnc(N2CCN(C(c3ccccc3)c3ccc(Cl)cc3)CC2)n1 (centres unmarked) [Compound 376] |  | 2/50 | 16.4 ± 3.0 | 500 to 1000 | 13.6 ± 1.2 | 14.7 ± 1.5 | 17.2 ± 1.4 | Number of cells in which neurites appeared/total number of cells ([1]; 24 hours, 0.2 mM): 2/50
CC(=O)N(C)c1cc(C)nc(N2CCC(c3ccccc3)CC2)n1 [Compound 392] | 8/50 | 3/43 | 23.8 ± 4.2 | 500 to 1000 |  | 14.6 ± 6.0 | 30.9 ± 5.7 | Number of cells in which neurites appeared/total number of cells ([1]; 48 hours, 0.05 mM): 6/51; Number of cells having neurites with a length at least two times the diameter of each cell/total number of cells ([2]; 3 mM): 11.1 ± 9.7%

— patent publication US5147876A, “2,6-di,2,4,6-, 2,5,6-tri and 2,4,5,6-tetra-substituted pyrimidines, their pharmaceutically acceptable salts, pharmaceutical compositions containing same and their use in the treatment of neurological diseases” (Mitsui Petrochemical Industries, Ltd., priority 1988, dated 1992)
